Results on six molecules are retold here after patent US10414811B2, “Protease-resistant lipidated GLP-1 analogs” (MEDIMMUNE LIMITED, priority 2015, dated 2019).

Structures are written as SMILES. Like-named read-outs stand apart in the source and are kept apart here. Numbered stars: 1 amine (or outer) side, 2 acyl side, 3 side chain; on linkers, the order of the positions; unused ones are H or OH. Square brackets hold non-standard residues; d marks the D form. Side chains are listed from the residue outwards. Peptide text beside a SMILES is read from it. * marks the point of attachment. γGlu = O=C(O)[C@H](CCC(=O)[*:2])N[*:1]; Palmitoyl = CCCCCCCCCCCCCCCC(=O)*; αMeF = C[C@](N)(Cc1ccccc1)C(=O)O; αMeK = C[C@](N)(CCCCN)C(=O)O; Lauroyl = CCCCCCCCCCCC(=O)*; αMeS = C[C@](N)(CO)C(=O)O; AEEA = NCCOCCOCC(=O)O; Aib = CC(C)(N)C(=O)O

Holding throughout (type): cell-based
Assay [1] concerns the target T1, human glucose-dependent insulinotropic peptide receptor (GIPR) (Homo sapiens, UniProt P48546).
T1 construct: expressed in transfected cells
T1 sequence (P48546 22-466): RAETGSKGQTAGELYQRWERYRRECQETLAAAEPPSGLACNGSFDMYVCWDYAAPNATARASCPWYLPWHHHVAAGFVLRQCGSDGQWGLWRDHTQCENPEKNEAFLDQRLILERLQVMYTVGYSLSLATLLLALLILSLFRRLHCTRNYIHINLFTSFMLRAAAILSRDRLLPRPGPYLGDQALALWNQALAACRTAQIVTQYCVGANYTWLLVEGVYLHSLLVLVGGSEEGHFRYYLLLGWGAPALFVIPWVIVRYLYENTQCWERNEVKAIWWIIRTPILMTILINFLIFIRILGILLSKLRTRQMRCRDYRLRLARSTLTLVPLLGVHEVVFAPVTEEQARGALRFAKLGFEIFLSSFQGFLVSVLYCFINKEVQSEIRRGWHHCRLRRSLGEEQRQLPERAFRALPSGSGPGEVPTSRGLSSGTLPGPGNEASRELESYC
The experiment in a line: cAMP assay, human GIPR cells. The gist of the method:
(§1)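 Peptide-stimulated cAMP measured by two-step HTRF after a 30 min room-temperature incubation with receptor-expressing cells (hGLP-1R, hGIPR at 1×10^5 cells/ml; hGCGR at 2×10^5 cells/ml). Duplicate dilutions; EC50 from 4-parameter logistic fit of % Delta F.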
(In general: Changes in cAMP serve as a functional read-out for many G protein-coupled receptors.)

The target in assay [2] is T2, human GLP-1 receptor (GLP-1R) (Homo sapiens, UniProt P43220).
T2 construct: expressed in transfected cells
The experiment in a line: cAMP assay, human GLP-1R cells. A digest of the protocol: as §1

Assay [3] addresses T3, human glucagon receptor (GCGR) (Homo sapiens, UniProt P47871).
T3 construct: expressed in transfected cells
The experiment in a line: cAMP assay, human GCGR cells. A digest of the protocol: as §1

[4] abbreviates: cAMP assay, first determination (n1), read-out: Primary assay EC50 GIP-R (n1).
Where [5] appears, read: cAMP assay, second determination (n2), read-out: Primary assay EC50 GIP-R (n2).
Setting [6] is: cAMP assay, first determination (n1), read-out: Primary assay EC50 GLP-1R n1.
The mark [7] stands for this setting: cAMP assay, second determination (n2), read-out: Primary assay EC50 GLP-1R n2.
[8] abbreviates: mean of n1 and n2, read-out: Mean pM GLP-1R.
The mark [9] stands for this setting: cAMP assay, first determination (n1), read-out: Primary assay EC50 Gluc-R (n1).
Where [10] appears, read: cAMP assay, second determination (n2), read-out: Primary assay EC50 Gluc-R (n2).

T2 sequence (P43220 24-463): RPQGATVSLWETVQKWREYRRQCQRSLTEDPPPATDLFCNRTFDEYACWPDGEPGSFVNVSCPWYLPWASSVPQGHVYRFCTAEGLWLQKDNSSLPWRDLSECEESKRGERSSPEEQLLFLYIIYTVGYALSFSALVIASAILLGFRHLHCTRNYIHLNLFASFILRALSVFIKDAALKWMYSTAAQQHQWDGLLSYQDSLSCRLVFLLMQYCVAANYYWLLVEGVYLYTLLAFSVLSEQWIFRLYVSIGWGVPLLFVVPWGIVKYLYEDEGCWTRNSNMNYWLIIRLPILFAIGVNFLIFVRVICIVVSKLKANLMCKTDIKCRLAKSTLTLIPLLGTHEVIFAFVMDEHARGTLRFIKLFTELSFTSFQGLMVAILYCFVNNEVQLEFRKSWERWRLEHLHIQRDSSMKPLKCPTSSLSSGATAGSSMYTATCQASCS
T3 sequence (P47871 26-477): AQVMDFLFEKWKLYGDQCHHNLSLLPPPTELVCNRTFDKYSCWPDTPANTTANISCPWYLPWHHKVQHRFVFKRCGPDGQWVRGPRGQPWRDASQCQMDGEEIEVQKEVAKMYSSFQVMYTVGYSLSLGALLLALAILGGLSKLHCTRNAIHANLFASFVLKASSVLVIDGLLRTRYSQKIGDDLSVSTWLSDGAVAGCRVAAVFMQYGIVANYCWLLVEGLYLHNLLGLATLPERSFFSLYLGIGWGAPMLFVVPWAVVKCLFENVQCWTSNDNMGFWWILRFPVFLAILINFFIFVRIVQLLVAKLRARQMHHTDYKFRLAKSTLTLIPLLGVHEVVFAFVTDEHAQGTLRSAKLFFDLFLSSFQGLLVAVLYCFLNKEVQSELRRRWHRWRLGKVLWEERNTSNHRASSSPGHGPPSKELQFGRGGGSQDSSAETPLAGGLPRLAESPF

In the case of `CCCCCCCCCCCCCCCC(=O)N[C@@H](CCC(=O)NCCCC[C@H](NC(=O)CNC(=O)CNC(=O)[C@](C)(CCCCN)NC(=O)[C@@H](NC(=O)[C@@H](NC(=O)[C@](C)(Cc1ccccc1)NC(=O)[C@H](C)NC(=O)[C@@H](NC(=O)[C@](C)(Cc1ccccc1)NC(=O)[C@H](CCC(=O)O)NC(=O)[C@](C)(CCCCN)NC(=O)[C@H](C)NC(=O)[C@H](C)NC(=O)[C@H](CCC(=O)O)NC(=O)CNC(=O)[C@H](CCC(=O)O)NC(=O)[C@H](CC(C)C)NC(=O)[C@](C)(Cc1ccccc1)NC(=O)[C@H](CO)NC(=O)[C@](C)(CO)NC(=O)[C@@H](NC(=O)[C@H](CC(=O)O)NC(=O)[C@H](CC(=O)O)NC(=O)[C@@H](NC(=O)[C@](C)(Cc1ccccc1)NC(=O)[C@H](CO)NC(=O)CNC(=O)[C@H](CCC(=O)O)NC(=O)C(C)(C)NC(=O)[C@@H](N)Cc1c[nH]cn1)[C@@H](C)O)C(C)C)[C@@H](C)CC)C(C)C)C(C)C)C(N)=O)C(=O)O` [compound 35] (H-H[Aib]EGS[αMeF]TDDV[αMeS]S[αMeF]LEGEAA[αMeK]E[αMeF]IA[αMeF]VV[αMeK]GGK([γGlu-Palmitoyl])-NH2; N-terminus assumed), the EC50 was not below 89 nM in assay [1] (setting [4]); not below 27 nM in assay [1] (setting [5]); 4900 pM in assay [2] (setting [6]); 1700 pM in assay [2] (setting [7]); 3260 pM in assay [2] (setting [8]); not below 89 nM in assay [3] (setting [9]). In addition, the EC50 in assay [3] (setting [10]) is not below 27 nM.
As to `CCCCCCCCCCCC(=O)N[C@@H](CCC(=O)NCCOCCOCC(=O)NCCOCCOCC(=O)NCCCC[C@H](NC(=O)[C@H](Cc1ccc(O)cc1)NC(=O)[C@H](CO)NC(=O)[C@](C)(CO)NC(=O)[C@@H](NC(=O)[C@H](CC(=O)O)NC(=O)[C@H](CO)NC(=O)[C@@H](NC(=O)[C@](C)(Cc1ccccc1)NC(=O)[C@H](CO)NC(=O)CNC(=O)[C@H](CCC(=O)O)NC(=O)C(C)(C)NC(=O)[C@@H](N)Cc1c[nH]cn1)[C@@H](C)O)C(C)C)C(=O)N[C@@H](CCC(=O)O)C(=O)NCC(=O)N[C@@H](CCC(=O)O)C(=O)N[C@@H](C)C(=O)N[C@@H](C)C(=O)N[C@@](C)(CCCCN)C(=O)N[C@@H](CCCCNC(=O)COCCOCCNC(=O)COCCOCCNC(=O)CC[C@H](NC(=O)CCCCCCCCCCC)C(=O)O)C(=O)N[C@@H](Cc1ccccc1)C(=O)N[C@H](C(=O)N[C@@H](C)C(=O)N[C@@H](Cc1ccccc1)C(=O)N[C@@H](CCCCNC(=O)COCCOCCNC(=O)COCCOCCNC(=O)CC[C@H](NC(=O)CCCCCCCCCCC)C(=O)O)C(=O)N[C@H](C(=O)N[C@@H](CCC(=O)O)C(=O)NCC(=O)NCC(N)=O)C(C)C)[C@@H](C)CC)C(=O)O` [compound 486] (H-H[Aib]EGS[αMeF]TSDV[αMeS]SYK([AEEA-AEEA-γGlu-Lauroyl])EGEAA[αMeK]K([AEEA-AEEA-γGlu-Lauroyl])FIAFK([AEEA-AEEA-γGlu-Lauroyl])VEGG-NH2; N-terminus assumed), the EC50 in assay [1] (tris-lipidated peptides, second replicate, read-out: Primary assay EC50 GIP-R (n2)) is 19.9 nM; in assay [2] (tris-lipidated peptides, mean of n1 and n2, read-out: Primary assay EC50 Mean pM GLP-1R), 212 pM; in assay [2] (tris-lipidated peptides, replicate n1, read-out: Primary assay EC50 GLP-1R n1), 165 pM; in assay [2] (tris-lipidated peptides, replicate n2, read-out: Primary assay EC50 GLP-1R n2), 259 pM; in assay [3] (tris-lipidated peptides, second replicate, read-out: Primary assay EC50 Gluc-R (n2)) it was 19.9 nM.
Regarding `CCCCCCCCCCCC(=O)NCCCCCC(=O)NCCCC[C@H](NC(=O)[C@H](C)NC(=O)[C@H](C)NC(=O)[C@H](CCC(=O)O)NC(=O)CNC(=O)[C@H](CCC(=O)O)NC(=O)[C@H](CC(C)C)NC(=O)[C@](C)(Cc1ccccc1)NC(=O)[C@H](CO)NC(=O)[C@](C)(CO)NC(=O)[C@@H](NC(=O)[C@H](CC(=O)O)NC(=O)[C@H](CO)NC(=O)[C@@H](NC(=O)[C@](C)(Cc1ccccc1)NC(=O)[C@H](CO)NC(=O)CNC(=O)[C@H](CCC(=O)O)NC(=O)C(C)(C)NC(=O)[C@@H](N)Cc1c[nH]cn1)[C@@H](C)O)C(C)C)C(=O)N[C@@H](CCC(=O)O)C(=O)N[C@@](C)(Cc1ccccc1)C(=O)N[C@H](C(=O)N[C@@H](C)C(=O)N[C@@](C)(Cc1ccccc1)C(=O)N[C@H](C(=O)N[C@H](C(=O)N[C@@](C)(CCCCN)C(=O)NCC(=O)NCC(N)=O)C(C)C)C(C)C)[C@@H](C)CC` [compound 131], the EC50 in assay [1] (setting [4]) is not below 29 nM; in assay [1] (setting [5]), not below 29 nM; in assay [2] (setting [6]), 14 pM; in assay [2] (setting [7]) it was 9.9 pM; in assay [2] (setting [8]), 11.7 pM; in assay [3] (setting [9]) it was not below 29 nM. The EC50 in assay [3] (setting [10]) is not below 29 nM.
Turning to `CCCCCCCCCCCCCCCCCC(=O)N[C@@H](CCC(=O)N[C@@H](CCC(=O)NCCCC[C@H](NC(=O)[C@@H](NC(=O)[C@@H](NC(=O)[C@](C)(Cc1ccccc1)NC(=O)[C@H](C)NC(=O)[C@@H](NC(=O)[C@](C)(Cc1ccccc1)NC(=O)[C@H](CCC(=O)O)NC(=O)[C@](C)(CCCCN)NC(=O)[C@H](C)NC(=O)[C@H](C)NC(=O)[C@H](CCC(=O)O)NC(=O)CNC(=O)[C@H](CCC(=O)O)NC(=O)[C@H](CC(C)C)NC(=O)[C@](C)(Cc1ccccc1)NC(=O)[C@H](CO)NC(=O)[C@](C)(CO)NC(=O)[C@@H](NC(=O)[C@H](CC(=O)O)NC(=O)[C@H](CO)NC(=O)[C@@H](NC(=O)[C@](C)(Cc1ccccc1)NC(=O)[C@H](CO)NC(=O)CNC(=O)[C@H](CCC(=O)O)NC(=O)C(C)(C)NC(=O)[C@@H](N)Cc1c[nH]cn1)[C@@H](C)O)C(C)C)[C@@H](C)CC)C(C)C)C(C)C)C(=O)NCC(=O)NCC(N)=O)C(=O)O)C(=O)O` [compound 183], the EC50 in assay [1] (setting [4]) was not below 27 nM; in assay [1] (setting [5]) it was not below 27 nM; in assay [2] (setting [6]) it was 64 pM; in assay [2] (setting [7]), 18 pM; in assay [2] (setting [8]) it was 40.9 pM; in assay [3] (setting [9]), not below 27 nM. In assay [3] (setting [10]), the EC50 was not below 27 nM.
Regarding `CC[C@H](C)[C@H](NC(=O)[C@](C)(Cc1ccccc1)NC(=O)[C@H](CCC(=O)O)NC(=O)[C@](C)(CCCCN)NC(=O)[C@H](C)NC(=O)[C@H](C)NC(=O)[C@H](CCC(=O)O)NC(=O)CNC(=O)[C@H](CCC(=O)O)NC(=O)[C@H](CC(C)C)NC(=O)[C@](C)(Cc1ccccc1)NC(=O)[C@H](CO)NC(=O)[C@](C)(CO)NC(=O)[C@@H](NC(=O)[C@H](CC(=O)O)NC(=O)[C@H](CO)NC(=O)[C@@H](NC(=O)[C@](C)(Cc1ccccc1)NC(=O)[C@H](CO)NC(=O)CNC(=O)[C@H](CCC(=O)O)NC(=O)C(C)(C)NC(=O)[C@@H](N)Cc1c[nH]cn1)[C@@H](C)O)C(C)C)C(=O)N[C@@H](C)C(=O)N[C@@](C)(Cc1ccccc1)C(=O)N[C@H](C(=O)N[C@H](C(=O)N[C@@H](CCCCNC(=O)CC[C@H](NC(=O)CC[C@H](NC(=O)CCCCCCCCCCCCCCCCC(=O)O)C(=O)O)C(=O)O)C(=O)NCC(=O)NCC(N)=O)C(C)C)C(C)C` [compound 192], the EC50 in assay [1] (first run (n1), cAMP activity, read-out: Primary assay EC50 GIP-R) is not below 27 nM; in assay [2] (first run (n1), cAMP activity, read-out: Primary assay EC50 GLP-1R n1), 170 pM; in assay [2] (setting [8]), 113 pM; in assay [2] (second run (n2), cAMP activity, read-out: Primary assay EC50 GLP-1R n2), 60 pM; in assay [3] (first run (n1), cAMP activity of substituted and mono-lipidated peptides, read-out: Primary assay EC50 Gluc-R), not below 27 nM.
For the molecule `CC[C@H](C)[C@H](NC(=O)[C@](C)(Cc1ccccc1)NC(=O)[C@H](CCC(=O)O)NC(=O)[C@](C)(CCCCN)NC(=O)[C@H](C)NC(=O)[C@H](C)NC(=O)[C@H](CCC(=O)O)NC(=O)CNC(=O)[C@H](CCC(=O)O)NC(=O)[C@H](CC(C)C)NC(=O)[C@](C)(Cc1ccccc1)NC(=O)[C@H](CO)NC(=O)[C@H](CO)NC(=O)[C@@H](NC(=O)[C@H](CCC(=O)O)NC(=O)[C@H](CO)NC(=O)[C@@H](NC(=O)[C@](C)(Cc1ccccc1)NC(=O)[C@H](CO)NC(=O)CNC(=O)[C@H](CCC(=O)O)NC(=O)C(C)(C)NC(=O)[C@@H](N)Cc1c[nH]cn1)[C@@H](C)O)C(C)C)C(=O)N[C@@H](C)C(=O)N[C@@](C)(Cc1ccccc1)C(=O)N[C@H](C(=O)N[C@H](C(=O)N[C@@](C)(CCCCN)C(=O)NCC(=O)NCC(N)=O)C(C)C)C(C)C` [compound 7] (H-H[Aib]EGS[αMeF]TSEVSS[αMeF]LEGEAA[αMeK]E[αMeF]IA[αMeF]VV[αMeK]GG-NH2), the EC50 in assay [1] (setting [4]) is not below 100 nM; in assay [1] (setting [5]) it was not below 100 nM; in assay [2] (setting [6]), 350 pM; in assay [2] (setting [7]) it was 430 pM; in assay [2] (setting [8]), 389 pM; in assay [3] (setting [9]) it was not below 100 nM. In assay [3] (setting [10]), the EC50 was not below 100 nM.
